Consider 29 compounds from patent US20230024302A1, “2,3,5-TRISUBSTITUTED PYRAZOLO[1,5-A]PYRIMIDINE COMPOUNDS” (Arcus Biosciences, Inc., priority 2019, published 2023).

Read-outs that look alike come from different tables or passages of the source.

One assay concerns the target T1, PI3Kγ (p120γ) (Homo sapiens, UniProt P48736).
T1 construct: purchased Promega V1761
Description: Inhibition of PI3K kinase activity (ADP Glo), PI3Kγ. The note with it: read-out: biochemical potency (PI3Kγ IC50). In short, it runs like this: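 IC50 values come from a 4-parameter nonlinear fit of ADP-Glo luminescence, which measures ADP produced as PIP2 is phosphorylated to PIP3. The p120γ enzyme (2× stock 8 nM) sat with compound 1 h at rt before substrate (2× stocks: 50 μM ATP, 0.1 mg/ml PIP2) was added. Phosphorylation then proceeded 60 min at rt.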

A further assay addresses T2, PI3Kγ (Homo sapiens, UniProt P48736).
T2 construct: host or cells: THP-1
Description: PI3Kγ cellular assay in THP-1 cells (AKT pS473 AlphaLISA). It is filed as cell-based. In short, it runs like this: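 Endogenous AKT S473 phosphorylation, detected by AlphaLISA in lysates, serves as the PI3Kγ activity read-out in stimulated, serum-starved THP-1 cells (1.8×10^5/well).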

Where [1] appears, read: Table 1, rhMCP-1 stimulated AKT pS473, read-out: cellular potency (PI3Kγ IC50).
The mark [2] stands for this setting: AKT pS473, read-out: cellular potency (PI3Kγ IC50).
The mark [3] stands for this setting: Table 2, rhMCP-1 stimulated AKT pS473, read-out: cellular potency (PI3Kγ IC50).
The mark [4] stands for this setting: Table 6, rhMCP-1 stimulated AKT pS473, read-out: cellular potency (PI3Kγ IC50).
Where [5] appears, read: Table 3, rhMCP-1 stimulated AKT pS473, read-out: cellular potency (PI3Kγ IC50).

T1 sequence (P48736 whole entry): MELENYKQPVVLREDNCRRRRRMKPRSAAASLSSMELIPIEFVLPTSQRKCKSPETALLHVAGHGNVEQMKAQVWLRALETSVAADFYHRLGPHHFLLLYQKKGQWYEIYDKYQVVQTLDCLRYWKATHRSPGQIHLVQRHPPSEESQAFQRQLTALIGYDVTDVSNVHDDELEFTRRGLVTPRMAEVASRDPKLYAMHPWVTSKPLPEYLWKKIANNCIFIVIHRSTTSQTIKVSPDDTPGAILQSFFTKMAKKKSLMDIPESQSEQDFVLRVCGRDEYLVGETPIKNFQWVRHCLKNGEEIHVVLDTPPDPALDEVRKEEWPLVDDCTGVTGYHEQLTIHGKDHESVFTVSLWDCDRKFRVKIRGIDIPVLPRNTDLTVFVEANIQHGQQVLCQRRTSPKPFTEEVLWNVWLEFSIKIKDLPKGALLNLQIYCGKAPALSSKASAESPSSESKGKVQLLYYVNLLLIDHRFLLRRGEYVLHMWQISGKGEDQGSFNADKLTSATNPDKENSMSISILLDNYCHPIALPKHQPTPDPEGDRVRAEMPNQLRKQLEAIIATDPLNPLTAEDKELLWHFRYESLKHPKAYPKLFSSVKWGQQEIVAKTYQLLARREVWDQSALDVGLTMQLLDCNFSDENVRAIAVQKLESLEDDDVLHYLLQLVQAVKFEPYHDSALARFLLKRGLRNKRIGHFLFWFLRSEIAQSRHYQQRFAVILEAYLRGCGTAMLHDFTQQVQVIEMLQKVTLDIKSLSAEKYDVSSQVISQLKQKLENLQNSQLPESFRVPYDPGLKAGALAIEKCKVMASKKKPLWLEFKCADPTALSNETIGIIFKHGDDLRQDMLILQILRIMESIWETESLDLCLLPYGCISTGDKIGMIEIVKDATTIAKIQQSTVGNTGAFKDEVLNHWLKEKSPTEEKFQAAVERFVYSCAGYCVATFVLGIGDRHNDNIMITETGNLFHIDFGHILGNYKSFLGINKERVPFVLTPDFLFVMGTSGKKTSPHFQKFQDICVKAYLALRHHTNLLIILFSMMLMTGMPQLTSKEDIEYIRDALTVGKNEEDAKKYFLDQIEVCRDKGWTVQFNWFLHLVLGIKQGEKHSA
T2 sequence (P48736 whole entry): as above

As for `C[C@@H](C1CC1)N1Cc2cc(-c3ccn4nc(N)c(C(=O)N[C@H]5CC[C@H](C(C)(C)O)CC5)c4n3)cc(NS(C)(=O)=O)c2C1=O` [Example 91, 2-Amino-5-{2-[(1S)-1-cyclopropylethyl]-7-methanesulfonamido-1-oxo-2,3-dihydro-1H-isoindol-5-yl}-N-[trans-4-(2-hydroxypropan-2-yl)cyclohexyl]pyrazolo[1,5-a]pyrimidine-3-carboxamide], the half-inhibitory concentration (IC50) on PI3Kγ (p120γ) (Table 1, p120γ) was less than 100 nM; at PI3Kγ (setting [1]), less than 100 nM.
Regarding `CC(C)[C@H](N1Cc2cc(-c3ccn4nc(N)c(C(=O)NC5CC5)c4n3)cc(NS(C)(=O)=O)c2C1=O)C(F)(F)F` [Example 402], the concentration for half-maximal inhibition (IC50) was less than 100 nM at PI3Kγ (p120γ) and 100 to 1000 nM at PI3Kγ (setting [2]).
On to `Cc1cc(-c2ccn3nc(N)c(C(=O)NC4(C)COC4)c3n2)cc2c1C(=O)N(CC(C)(C)O)C2` [Example 318], for which the concentration for half-maximal inhibition (IC50) on PI3Kγ (p120γ) (Table 2, p120γ) is less than 100 nM; on PI3Kγ (setting [3]) it was 100 to 1000 nM.
For the compound `C[C@H](NC(=O)c1c(N)nn2ccc(-c3cc4c(c(NS(C)(=O)=O)c3)C(=O)N([C@@H](C)C3CC3)C4)nc12)C(N)=O` [Example 382], the IC50 is less than 100 nM at PI3Kγ (p120γ) and 100 to 1000 nM at PI3Kγ (setting [2]).
Turning to `C[C@@H](C1CC1)N1Cc2cc(-c3ccn4nc(N)c(C(=O)NC5CC5)c4n3)cc(S(C)(=N)=O)c2C1=O` (stereo partly shown) [Example 447], the IC50 on PI3Kγ (p120γ) (Table 6, p120γ) is less than 100 nM; at PI3Kγ (setting [4]), 100 to 1000 nM.
In the case of `COc1cncc(NC(=O)c2c(N)nn3ccc(-c4cc5c(c(OC(F)(F)F)c4)C(=O)N([C@@H](C)C4CC4)C5)nc23)c1` [Example 43, 2-Amino-5-{2-[(1S)-1-cyclopropylethyl]-1-oxo-7-(trifluoromethoxy)-2,3-dihydro-1H-isoindol-5-yl}-N-(5-methoxypyridin-3-yl)pyrazolo[1,5-a]pyrimidine-3-carboxamide], the half-maximal inhibitory concentration (IC50) on PI3Kγ (p120γ) (Table 1, p120γ) was less than 100 nM; at PI3Kγ (setting [1]), less than 100 nM.
For `Cc1cc(-c2ccn3nc(N)c(C(=O)N[C@H]4CCOC4)c3n2)cc2c1C(=O)N([C@@H](C)C1CC1)C2` [Example 177], the IC50 at PI3Kγ (p120γ) (Table 2, p120γ) was less than 100 nM; on PI3Kγ (setting [3]), 100 to 1000 nM.
For the compound `CC[C@H](CO)N1Cc2cc(-c3ccn4nc(N)c(C(=O)NC5CC5)c4n3)cc(C)c2C1=O` [Example 308], the 50% inhibitory concentration (IC50) on PI3Kγ (p120γ) (Table 2, p120γ) is less than 100 nM; on PI3Kγ (setting [3]) it was 100 to 1000 nM.
In the case of `C[C@@H](C1CC1)N1Cc2cc(-c3ccn4nc(N)c(C(=O)N[C@H]5CC[C@@](C)(O)CC5)c4n3)cc(N3CCOCC3)c2C1=O` [Example 154, 2-Amino-5-{2-[(1S)-1-cyclopropylethyl]-7-(morpholin-4-yl)-1-oxo-2,3-dihydro-1H-isoindol-5-yl}-N-[cis-4-hydroxy-4-methylcyclohexyl]pyrazolo[1,5-a]pyrimidine-3-carboxamide], the IC50 at PI3Kγ (p120γ) (Table 1, p120γ) is less than 100 nM; at PI3Kγ (setting [1]), less than 100 nM.
In the case of `C[C@@H](C1CC1)N1Cc2cc(-c3ccn4nc(N)c(C(=O)Nc5cnccc5N)c4n3)cc(OC(F)(F)F)c2C1=O` [Example 422], the IC50 on PI3Kγ (p120γ) (Table 6, p120γ) was less than 100 nM; at PI3Kγ (setting [4]), 100 to 1000 nM.
`Cc1cc(-c2ccn3nc(N)c(C(=O)N[C@@H](CO)C(C)C)c3n2)cc2c1C(=O)N([C@@H](C)C1CC1)C2` [Example 191]: the IC50 was less than 100 nM on PI3Kγ (p120γ) (Table 2, p120γ) and 100 to 1000 nM at PI3Kγ (setting [3]).
As to `Cc1cc(-c2ccn3nc(N)c(C(=O)NC4COCc5ccccc54)c3n2)cc2c1C(=O)N([C@@H](C)C1CC1)C2` (stereo partly shown) [Example 259], the IC50 was less than 100 nM on PI3Kγ (p120γ) (Table 2, p120γ) and 100 to 1000 nM on PI3Kγ (setting [3]).
On to `C[C@@H](C1CC1)N1Cc2cc(-c3ccn4nc(N)c(C(=O)N[C@]5(C)C[C@@H](O)C5)c4n3)cc(NS(C)(=O)=O)c2C1=O` [Example 83, 2-Amino-5-{2-[(1S)-1-cyclopropylethyl]-7-methanesulfonamido-1-oxo-2,3-dihydro-1H-isoindol-5-yl}-N-[trans-3-hydroxy-1-methylcyclobutyl]pyrazolo[1,5-a]pyrimidine-3-carboxamide], for which the 50% inhibitory concentration (IC50) on PI3Kγ (p120γ) (Table 1, p120γ) is less than 100 nM; at PI3Kγ (setting [1]), less than 100 nM.
Regarding `Cc1cc(-c2ccn3nc(N)c(C(=O)NC4(C#N)CC4)c3n2)cc2c1C(=O)N([C@@H](C)C1CC1)C2` [Example 268], the half-maximal inhibitory concentration (IC50) on PI3Kγ (p120γ) (Table 2, p120γ) is less than 100 nM; at PI3Kγ (setting [3]), 100 to 1000 nM.
As to `Cc1cc(-c2ccn3nc(N)c(C(=O)NC[C@@H](C)O)c3n2)cc2c1C(=O)N([C@@H](C)C1CC1)C2` [Example 227], the concentration for half-maximal inhibition (IC50) on PI3Kγ (p120γ) (Table 2, p120γ) is less than 100 nM; on PI3Kγ (setting [3]) it was 100 to 1000 nM.
With `Cc1cc(-c2ccn3nc(N)c(C(=O)NC4CC4)c3n2)cc2c1C(=O)N([C@H]1CC[C@H](O)C1)C2` [Example 323], the IC50 is less than 100 nM on PI3Kγ (p120γ) (Table 2, p120γ) and 100 to 1000 nM at PI3Kγ (setting [3]).
On to `Cc1cc(-c2ccn3nc(N)c(C(=O)N[C@H]4C[C@H](N)C4)c3n2)cc2c1C(=O)N([C@@H](C)C1CC1)C2` [Example 185], for which the IC50 at PI3Kγ (p120γ) (Table 2, p120γ) was less than 100 nM; on PI3Kγ (setting [3]), 100 to 1000 nM.
As to `C[C@@H](C1CC1)N1Cc2cc(-c3ccn4nc(N)c(C(=O)N[C@@H](CO)C5CC5)c4n3)cc(C(F)(F)F)c2C1=O` [Example 353], the IC50 at PI3Kγ (p120γ) (Table 3, p120γ) was less than 100 nM; on PI3Kγ (setting [5]), 100 to 1000 nM.
Consider `CNS(=O)(=O)c1cc(-c2ccn3nc(N)c(C(=O)NC4CC4)c3n2)cc2c1C(=O)N([C@@H](C)C1CC1)C2` [Example 142, 2-Amino-N-cyclopropyl-5-{2-[(1S)-1-cyclopropylethyl]-7-(methylsulfamoyl)-1-oxo-2,3-dihydro-1H-isoindol-5-yl}pyrazolo[1,5-a]pyrimidine-3-carboxamide], for which the IC50 at PI3Kγ (p120γ) (Table 1, p120γ) was less than 100 nM; on PI3Kγ (setting [1]), less than 100 nM.
As to `C[C@@H](C1CC1)N1Cc2cc(-c3ccn4nc(N)c(C(=O)NC5CC5)c4n3)cc(S(=O)(=O)CC3CC3)c2C1=O` [Example 135, 2-Amino-N-cyclopropyl-5-{2-[(1S)-1-cyclopropylethyl]-7-cyclopropylmethanesulfonyl-1-oxo-2,3-dihydro-1H-isoindol-5-yl}pyrazolo[1,5-a]pyrimidine-3-carboxamide], the concentration for half-maximal inhibition (IC50) is less than 100 nM on PI3Kγ (p120γ) (Table 1, p120γ) and less than 100 nM at PI3Kγ (setting [1]).
In the case of `C[C@@H](C1CC1)N1Cc2cc(-c3ccn4nc(N)c(C(=O)NC5CC5)c4n3)cc(S(=O)(=O)C3CCCCC3)c2C1=O` [Example 138, 2-Amino-5-[7-(cyclohexanesulfonyl)-2-[(1S)-1-cyclopropylethyl]-1-oxo-2,3-dihydro-1H-isoindol-5-yl]-N-cyclopropylpyrazolo[1,5-a]pyrimidine-3-carboxamide], the IC50 was less than 100 nM on PI3Kγ (p120γ) (Table 1, p120γ) and less than 100 nM at PI3Kγ (setting [1]).
Consider `C[C@@H](C1CC1)N1Cc2cc(-c3ccn4nc(N)c(C(=O)NC5CC5)c4n3)cnc2C1=O` [Example 455], for which the IC50 on PI3Kγ (p120γ) (Table 7, p120γ) is less than 100 nM; on PI3Kγ (Table 7, rhMCP-1 stimulated AKT pS473, read-out: cellular potency (PI3Kγ IC50)) it was 100 to 1000 nM.
Regarding `C[C@@H](C1CC1)N1Cc2cc(-c3ccn4nc(N)c(C(=O)N[C@H]5CC[C@H](C6(O)CC6)CC5)c4n3)cc(NS(C)(=O)=O)c2C1=O` [Example 92, 2-Amino-5-{2-[(1S)-1-cyclopropylethyl]-7-methanesulfonamido-1-oxo-2,3-dihydro-1H-isoindol-5-yl}-N-[trans-4-(1-hydroxycyclopropyl)cyclohexyl]pyrazolo[1,5-a]pyrimidine-3-carboxamide], the half-inhibitory concentration (IC50) is less than 100 nM on PI3Kγ (p120γ) (Table 1, p120γ) and less than 100 nM at PI3Kγ (setting [1]).
For the compound `C[C@@H](C1CC1)N1Cc2cc(-c3ccn4nc(N)c(C(=O)NC5CC5)c4n3)cc(S(=O)(=O)C3CCCC3)c2C1=O` [Example 137, 2-Amino-5-[7-(cyclopentanesulfonyl)-2-[(1S)-1-cyclopropylethyl]-1-oxo-2,3-dihydro-1H-isoindol-5-yl]-N-cyclopropylpyrazolo[1,5-a]pyrimidine-3-carboxamide], the 50% inhibitory concentration (IC50) at PI3Kγ (p120γ) (Table 1, p120γ) is less than 100 nM; on PI3Kγ (setting [1]), less than 100 nM.
With `C[C@@H](C1CC1)N1Cc2cc(-c3ccn4nc(N)c(C(=O)N[C@H]5C[C@H](O)C5)c4n3)cc(C(F)(F)F)c2C1=O` [Example 65, 2-Amino-5-{2-[(1S)-1-cyclopropylethyl]-1-oxo-7-(trifluoromethyl)-2,3-dihydro-1H-isoindol-5-yl}-N-[trans-3-hydroxycyclobutyl]pyrazolo[1,5-a]pyrimidine-3-carboxamide], the IC50 at PI3Kγ (p120γ) (Table 1, p120γ) is less than 100 nM; at PI3Kγ (setting [1]), less than 100 nM.
As to `C[C@H](CO)NC(=O)c1c(N)nn2ccc(-c3cc4c(c(N(C)S(C)(=O)=O)c3)C(=O)N([C@@H](C)C3CC3)C4)nc12` [Example 408], the half-maximal inhibitory concentration (IC50) on PI3Kγ (p120γ) (Table 6, p120γ) was less than 100 nM; on PI3Kγ (setting [4]), 100 to 1000 nM.
For `C[C@@H](C1CC1)N1Cc2cc(-c3ccn4nc(N)c(C(=O)N[C@H]5CC[C@@](O)(C(F)(F)F)CC5)c4n3)cc(C(F)(F)F)c2C1=O` [Example 345], the half-inhibitory concentration (IC50) is less than 100 nM on PI3Kγ (p120γ) (Table 3, p120γ) and 100 to 1000 nM on PI3Kγ (setting [5]).
Take `Cc1cc(-c2ccn3nc(N)c(C(=O)Nc4ccccc4)c3n2)cc2c1C(=O)N([C@@H](C)C1CC1)C2` [Example 298]: the IC50 is less than 100 nM on PI3Kγ (p120γ) (Table 2, p120γ) and greater than 1000 nM on PI3Kγ (setting [3]).
For `Cc1cc(-c2ccn3nc(N)c(C(=O)NC4CC4(C)C)c3n2)cc2c1C(=O)N([C@@H](C)C1CC1)C2` (stereo partly shown) [Example 249], the IC50 at PI3Kγ (p120γ) (Table 2, p120γ) is less than 100 nM; on PI3Kγ (setting [3]), 100 to 1000 nM.
